Measured values as given in ChEMBL document CHEMBL4130359, “Indazole-based ligands for estrogen-related receptor α as potential anti-diabetic agents” (Eur J Med Chem, 2017).

Legend:
Rattus norvegicus [1] = assay: Effect on NDUFV2 gene expression in epididymal white adipose tissue of Zucker rat sub-chronic fa/fa prediabetic model at 10 mg/kg, po qd for 15 days by microarray analysis relative to control; type: functional
Rattus norvegicus [2] = assay: Toxicity in […] chronic ob/ob model assessed as body weight at 50 mg/kg, po qd for 28 days measured on day 28 post last dose (reference value: 47.3 +/- 1.06 g); type: organism-based; settings: in vivo, 672 h
Rattus norvegicus [3] = assay: Toxicity in […] model assessed as liver weight at 10 mg/kg, po qd for 31 days measured on day 32 (reference value: 2.77 +/- 0.16 g); type: organism-based; settings: in vivo, 744 h
Homo sapiens = species on record: Homo sapiens; assay: Inhibition of picrotoxin binding to chloride channel (unknown origin) at 10 uM relative to control
Rattus norvegicus [4] = assay: Effect on IL1RN gene expression in epididymal white adipose tissue of Zucker rat sub-chronic fa/fa prediabetic model at 10 mg/kg, po qd for 15 days by microarray analysis relative to control; type: functional
Rattus norvegicus [5] = assay: Effect on IGFBP4 gene expression in epididymal white adipose tissue of Zucker rat sub-chronic fa/fa prediabetic model at 10 mg/kg, po qd for 15 days by microarray analysis relative to control; type: functional
Rattus norvegicus [6] = assay: Antidiabetic activity in po dosed Zucker rat chronic ob/ob model assessed as reduction in blood glucose AUC (0 to 120 min) administered once daily for 31 days measured on day 28 post dose by OGTT; type: functional, organism-based
Rattus norvegicus [7] = assay: Toxicity in Zucker rat sub-chronic fa/fa prediabetic model assessed as insulin level per gram pancreas at 50 mg/kg, po qd for 31 days measured on day 32 (reference value: 55.2 +/- 5.5 ug); type: organism-based; settings: in vivo, 744 h
Rattus norvegicus [8] = assay: Effect on COX6A2 gene expression in epididymal white adipose tissue of Zucker rat sub-chronic fa/fa prediabetic model at 10 mg/kg, po qd for 15 days by microarray analysis relative to control; type: functional
Rattus norvegicus [9] = assay: Toxicity in Zucker rat sub-chronic fa/fa prediabetic model assessed as serum BUN level at 1 mg/kg, po qd for 31 days measured on day 32 (reference value: 28.3 +/- […]); type: organism-based; settings: in vivo, 744 h
[10] = Half life in Sprague-Dawley rat at 2 mg/kg, iv by LC-MS analysis; type: ADME, organism-based; settings: in vivo
Rattus norvegicus [11] = assay: Effect on NDUFS1 gene expression in epididymal white adipose tissue of Zucker rat sub-chronic fa/fa prediabetic model at 10 mg/kg, po qd for 15 days by microarray analysis relative to control; type: functional
[12] = Cmax in Zucker rat sub-chronic fa/fa prediabetic model at 10 mg/kg, po qd for 26 days measured on day 26 post last dose; type: ADME, organism-based; parameters: dose 10 mg/kg, route oral; settings: in vivo
[13] = AUC (0 to 24 hrs) in Zucker rat sub-chronic fa/fa prediabetic model at 10 mg/kg, po qd measured on day 1 post dose; type: ADME, organism-based; parameters: time < 24 hr, dose 10 mg/kg, route oral; settings: in vivo
Rattus norvegicus [14] = assay: Effect on IL36B gene expression in epididymal white adipose tissue of Zucker rat sub-chronic fa/fa prediabetic model at 10 mg/kg, po qd for 15 days by microarray analysis relative to control; type: functional
Rattus norvegicus [15] = assay: Toxicity in Zucker rat sub-chronic fa/fa prediabetic model assessed as insulin level per gram pancreas at 1 mg/kg, po qd for 31 days measured on day 32 (reference value: 55.2 +/- 5.5 ug); type: organism-based; settings: in vivo, 744 h
[16] = Tmax in Sprague-Dawley rat at 10 mg/kg administered via oral gavage by LC-MS analysis; type: ADME, organism-based; settings: in vivo
Rattus norvegicus [17] = assay: Toxicity in […] model assessed as serum AST level at 3 mg/kg, po qd for 31 days measured on day 32 (reference value: 180 +/- 26 U/L); type: organism-based; settings: in vivo, 744 h
Rattus norvegicus [18] = assay: Effect on IDH3B gene expression in epididymal white adipose tissue of Zucker rat sub-chronic fa/fa prediabetic model at 10 mg/kg, po qd for 15 days by microarray analysis relative to control; type: functional
Rattus norvegicus [19] = assay: Effect on LPIN2 gene expression in epididymal white adipose tissue of Zucker rat sub-chronic fa/fa prediabetic model at 10 mg/kg, po qd for 15 days by microarray analysis relative to control; type: functional
Rattus norvegicus [20] = assay: Effect on HSD17B4 gene expression in epididymal white adipose tissue of Zucker rat sub-chronic fa/fa prediabetic model at 10 mg/kg, po qd for 15 days by microarray analysis relative to control; type: functional

For `CN1CC[C@@H](N2C(=O)S/C(=C\c3ccc4c(cnn4Cc4ccc(Cl)cc4C(F)(F)F)c3)C2=O)[C@H](F)C1`, the “fold change (FC)” value (Rattus norvegicus [1]) was 1.44, the Activity (Rattus norvegicus [2]) was 46.8 g and the Activity (Rattus norvegicus [3]) was 2.67 g. For the same compound, the inhibition (Homo sapiens) was 50%, the “fold change (FC)” value (Rattus norvegicus [4]) was -1.209 and the “fold change (FC)” value (Rattus norvegicus [5]) was -1.825. For the same compound, the Activity (Rattus norvegicus [6]) was “Dose-dependent effect”, the Activity (Rattus norvegicus [7]) was 94 µg and the “fold change (FC)” value (Rattus norvegicus [8]) was 1.35. The Activity (Rattus norvegicus [9]) was 26.9 mg/dL, the half-life [10] was 6 h and the “fold change (FC)” value (Rattus norvegicus [11]) was 1.561. The Cmax [12] was 2900 ng/mL, the AUC(0-t) at 24 h [13] was 18100 ng·h/mL and the “fold change (FC)” value (Rattus norvegicus [14]) was -1.232. For the same compound, the Activity (Rattus norvegicus [15]) was 72.7 µg, the Tmax [16] was 1.5 h and the Activity (Rattus norvegicus [17]) was 211 U/L. For the same compound, the “fold change (FC)” value (Rattus norvegicus [18]) was 1.655, the “fold change (FC)” value (Rattus norvegicus [19]) was 1.548 and the “fold change (FC)” value (Rattus norvegicus [20]) was 1.226.
